Laboratory results: patent US9394352B2, “Immunogenic POTE peptides and methods of use” (The United States of America, as represented by the …, priority 2010, dated 2016)
Where no end group is shown, it is not given here.

System: NCI-H522 cells (POTE+/HLA-A2)
Experiment: CTL cytotoxicity against human cancer cells
Assay type: cell-based
Conditions: HHD-2 mice immunized with 50 nmol peptide, restimulated 7 days with 1000 nM peptide; POTE-expressing NCI-H522 human lung cancer cells
Description: FIGS. 8A-8B are graphs showing anti-tumor cytotoxicity induced by enhanced POTE epitopes. AAD mice were immunized s.c. with 50 nmol of peptide in 100 μl of emulsion. (FIG. 8A) Anti-tumor cytotoxicity against a POTE-expressing human lung cancer cell line NCI-H522 induced by POTE 553-1Y, 323-3F and 252-9V. HHD-2 mice were immunized with 50 nmol of peptide in 100 μl of emulsion and restimulated for 7 days with 1000 nM peptide before being tested for ability to lyse the tumor cells. (FIG. 8B) Summary of the anti-tumor cytotoxicity in POTE-expressing and non-POTE-expressing human tumor cells. NCI-H522 is a human lung cancer line expressing both POTE and HLA-A2, whereas HTB-19 is a human mammary carcinoma that expresses POTE but not HLA-A2, and MDA-MB-231 is a human mammary carcinoma cell line expressing HLA-A2 but not POTE.
AAD or HHD-2 mice were immunized subcutaneously (s.c.) in the base of the tail with 100 μl of an emulsion containing 1:1 incomplete Freund's adjuvant (Sigma) and PBS with peptides and cytokines (50 nmol of CTL epitope, 50 nmol of hepatitis B virus core 128-140 helper epitope, 5 μg of mouse interleukin-12, and 5 μg of mouse granulocyte macrophage colony-stimulating factor). Cytokines were purchased from Peprotech (Rocky Hill, N.J.). Mice were boosted 2 weeks later, and the spleens were removed 2 weeks after the boost. For all experiments, groups of three mice were used.
Splenocytes from the immunized mice were re-stimulated with peptide-loaded splenocytes (1 μM, or 10 nM). On day 1 and day 5, rat T STIM™ (BD Bioscience) was added as a source of IL-2. One week later, CTL activity was measured by using a 4-hour ^51Cr releasing assay. […] The percentage of specific ^51Cr release is calculated as 100× [(experimental release-spontaneous release)/(maximum release-spontaneous release)]. Spontaneous release is determined from target cells incubated without effector cells, and maximum release is determined in the presence of 5% triton-X. C1R.AAD or C1R.A2.1 cell lines were used as targets. […]

With KLMAKALLV [POTE 252-9V] as the sequence, how does the “anti-tumor cytotoxicity of peptide-induced CTLs” value (“anti-tumor cytotoxicity” below) read?
The value was “did not kill POTE-expressing cancer cells”.

How did the “anti-tumor cytotoxicity” value turn out when LLFEQNVDV [POTE 323-3F] was run?
Its value is “produced significant cytotoxicity to lyse NCI-H522 cells”.

How did the “anti-tumor cytotoxicity” value turn out when YILEEIESV [POTE 553-1Y] was run?
The value was “produced significant cytotoxicity to lyse NCI-H522 cells”.
